Measurements: US6469132B1, “Diblock copolymer and use thereof in a micellar drug delivery system” (McGill University, priority 1999, dated 2002)
“And” between values parts separate entries of the source, which are not always exact repeats. Equal values may be shown once.

Legend:
[1] = test system: PC 12 rat pheochromocytoma cells; assay: Cell differentiation assay: neurite-like outgrowth; format: cell-based
Procedure: In each case, the degree of neurite-like outgrowth was taken to be 100% in the control wells of untreated PC 12 cells. The degree of differentiation in cell wells in the presence of NGF and/or drug is expressed as a percentage relative to 100% for the control.
PC 12 cells were plated in 24 well plates at 37° C. in 5% CO2 and incubated in DMEM supplemented with 5% fetal bovine serum and the treatments described below. Neurite-like outgrowth in PC 12 cells was detected after a 48 hour period using a Nikon light microscope. For each data point 5 fields of 250-300 cells/well were analyzed. For the quantitation of neurite-like outgrowth the PC 12 cells were considered to have outgrowth if their processes were longer than the length of the diameter of the cell.
A range of concentrations of either NGF (0.1 to 50 ng/mL), FK506 (1 to 500 nM) or L,685-818 (1 to 500 nM) alone or combinations of 0.5 or 5 ng/mL of NGF with either FK506 (5 to 500 nM) or L-685,818 (50 nM to 10 μM), were incubated with the PC 12 cells for a 48 hour incubation period. The wells with untreated cells were used as controls.
The unfiltered solution of the micelle incorporated drug was added to the cell wells at different concentrations: a 10 μL aliquot of a FK506-micelle solution was added to each 0.5 mL cell well. The 10 μL aliquot was produced by diluting the 1.1×10^−5 moles/L FK506-PCL20-b-PEO44 micelle (1% w/w) stock solution. The final concentration of FK506 in the cell well was made to range from […]. In the same manner, a 10 uL aliquot of the L-685,818 micelle solution was added to each 0.5 mL cell well, such that final concentration in the well was made to range from 10 nM to 1 μM. In each case, 5 ng/mL NGF was also added to each cell well. Several controls were also used where the cells were treated with 5 ng/mL of NGF alone, 1% (w/w) PCL20-b-PEO44 micelles alone, 1% (w/w) PCL20-b-PEO44 micelles containing 1 nM FK 506 without NGF or 1% (w/w) PCL20-b-PEO44 micelles containing 10 nM L-685,818.

[2] = test system: PC 12 cells; assay: Cell uptake of pyrene incorporated micelles; format: cell-based, rat; conditions: 390 nm, zero time = 1, PCL14-b-PEO44 micelles
Procedure: The in vitro biocompatibility of the PCL-b-PEO micelles (14-b-44, 20-b-44) was tested by incubating the micelles with a wide range of cell lines for both 24-hour and 48-hour periods. The Trypan blue and Alamar blue survival assays were then used to quantify the survival rates in the presence of the PCL-b-PEO micelles. The capability of the PCL-b-PEO micelle system to deliver a hydrophobic compound was first tested in vitro using pyrene as a model compound. The pyrene incorporated PCL-b-PEO micelles were incubated with PC 12 cells over a 24-hour period. At 0, 4, 8 and 24 hours, samples of the supernatant were studied by fluorescence in order to determine the quantity of pyrene remaining in the supernatant at each time point. Likewise, at each time point, cells were isolated and their fluorescence was examined under the fluorescence microscope in order to determine if the decrease in the fluorescence within the supernatant was accompanied by an increase in fluorescence within the cells.
Pyrene incorporated micelles were prepared such that a total of 2×10^−7 moles/L of pyrene had been added to the 1% (w/w) micelle (PCL14-b-PEO44) solution, An aliquot of the micelle solution was incubated with PC 12 cells cultured in DMEM at 37° C., 5% CO2. At time 0, and 4, 8 and 24 hours, the fluorescence intensity (Perkin Elmer LS 50) of the supernatant was measured at 390 nm to determine the amount of pyrene remaining in the supernatant. Controls consisting of medium or medium and micelles alone were also measured. Following the removal of the aliquot of supernatant at each time point, the remaining supernatant was removed and the cells were washed three times with 100 uL of phosphate buffer saline. The cells were then gently scraped and fixed with aquamount on a slide and analyzed using a fluorescence microscope (Olympus BH-2).

[3] = Partition coefficient for pyrene between PCL-b-PEO micelles and water (fluorescence I3/I1 method); format: physicochemical; conditions: extrapolation to 100% water content; PCL-b-PEO (20-b-44) micelles
Procedure: The degree of non-covalent incorporation of physical entrapment of a hydrophobic drug into a micelle is determined by the partition coefficient of the drug between the micellar core and the surrounding aqueous medium. The affinity of the PCL-b-PEO micelles for lipophilic compounds was assayed by the determination of the Kv for the hydrophobic model compound, pyrene, between the PCL-b-PEO micelles and water. This method has been previously used to determine the Kv of pyrene between polystyrene-b-polyacrylic acid micelles and water. This fluorescence method is based on pyrene's sensitivity to the hydrophobicity of its microenvironment. […]
The fluorescence method used to determine the partition coefficient for pyrene between a mixed water/DMF solvent mixture (60-90% water content) and block copolymer micelles (concentration PCL20-b-PEO44 ranges from 1×10^−6 to 1×10^−2 g/g), at 25° C., has been described in detail elsewhere (Zhao, J. et al. (1997) Macromolecules, 30:7143-7150). […] Briefly, the intensity ratio of vibrational band three to vibrational band one (I3/I1) in the fluorescence emission spectrum of pyrene reflects the polarity of the surrounding environment of the probe molecules. […]
Steady-state fluorescent spectra were measured using a SPEX Fluorolog 2 spectrometer in the right-angle geometry (90° collecting optics). […] For fluorescence emission spectra, λεξ was 339 nm. […]

[4] = polystyrene-b-polyacrylic acid micelles; Zhao et al. 1997; cited from earlier work
[5] = drug alone 1 to 500 nM, 48 h, untreated control = 100%

C=CC[C@@H]1/C=C(\C)C[C@H](C)C[C@H](OC)[C@H]2O[C@@](O)(C(=O)C(=O)N3CCCC[C@H]3C(=O)O[C@H](/C(C)=C/[C@@H]3CC[C@@H](O)[C@H](OC)C3)[C@H](C)[C@@H](O)CC1=O)[C@H](C)C[C@@H]2OC [FK506]
degree of neurite-like outgrowth [1, 5]: ~100%
degree of neurite-like outgrowth ([1]; free FK506 1-100 nM with 5 ng/mL NGF, 48 h): 220-380%
dose adequate to potentiate neurite-like outgrowth ([1]; in vitro, PC12 cell cultures): 1 nM

CC[C@@H]1/C=C(\C)[C@@H](O)[C@H](C)C[C@H](OC)[C@H]2O[C@@](O)(C(=O)C(=O)N3CCCC[C@H]3C(=O)O[C@H](/C(C)=C/[C@@H]3CC[C@@H](O)[C@H](OC)C3)[C@H](C)[C@@H](O)CC1=O)[C@H](C)C[C@@H]2OC [L-685,818]
degree of neurite-like outgrowth [1, 5]: ~100%
effect of drug concentration on degree of differentiation ([1]; drug alone, no NGF, 48 h): no effect on the degree of differentiation
potentiation of the effect of NGF on neurite-like outgrowth ([1]; with 5 ng/mL NGF, PC 12 cell cultures): potentiate the effect of NGF on the outgrowth of PC 12 cells

c1cc2ccc3cccc4ccc(c1)c2c34 [pyrene]
relative fluorescence intensity of pyrene in supernatant ([2]; after 4 hours): 0.70 (±0.05)
relative fluorescence intensity of pyrene in supernatant ([2]; after 8 hours): 0.60 (±0.05)
relative fluorescence intensity of pyrene in supernatant ([2]; after 24 hours): 0.55 (±0.05)
partition coefficient (Kv) for pyrene between PCL-b-PEO micelles and water [3]: ~10^2
partition coefficient for pyrene between PS-b-PAA micelles and water [4]: ~10^5

NGF: nerve growth factor
degree of neurite-like outgrowth ([1]; 5 ng/mL NGF alone, 48 h, untreated control = 100%): 160±5% and 180±6%
degree of neurite-like outgrowth ([1]; NGF alone 0.1 to 50 ng/mL, 48 h, untreated control = 100%): 110-260%
